# Results reported in US12077503B2, “Substituted cyclic amides and their use as herbicides” (FMC CORPORATION, priority 2015, dated 2024).
# Assays:
# Assay in all cases: Test C preemergence
# Type in all cases: in vivo
# [1] = tested on: Galium (catchweed bedstraw, Galium aparine); conditions: for Plant response rating, Galium: scale 0 to 100, 0 no effect, 100 complete control
# Text: (§1) Seeds of plant species selected from blackgrass (Alopecurus myosuroides), ryegrass, Italian (Italian ryegrass, Lolium multiflorum), wheat (winter wheat, Triticum aestivum), Galium (catchweed bedstraw, Galium aparine), corn (Zea mays), crabgrass, large (large crabgrass, Digitaria sanguinalis), foxtail, giant (giant foxtail, Setaria faberii), johnsongrass (Sorghum halepense), lambsquarters (Chenopodium album), morningglory (Ipomoea coccinea), nutsedge, yellow (yellow nutsedge, Cyperus esculentus), pigweed (Amaranthus retroflexus), ragweed (common ragweed, Ambrosia elatior), soybean (Glycine max), barnyardgrass (Echinochloa crus-galli), oilseed rape (Brassica napus), waterhemp (common waterhemp, Amaranthus rudis) and velvetleaf (Abutilon theophrasti) were planted into a blend of loam soil and sand and treated preemergence with test chemicals formulated in a non-phytotoxic solvent mixture which included a surfactant.
# (§2) At the same time, plants selected from these crop and weed species and also Kochia (Kochia scoparia), oat, wild (wild oat, Avena fatua), and chickweed (common chickweed, Stellaria media) were planted in pots containing Sunshine Redi-Earth® planting medium comprising spaghnum peat moss, vermiculite, starter nutrients and dolomitic limestone and treated with postemergence applications of test chemicals formulated in the same manner. Plants ranged in height from 2 to 18 cm (1- to 4-leaf stage) for postemergence treatments. Treated plants and controls were maintained in a greenhouse for 13 to 15 d, after which time all species were compared to controls and visually evaluated. Plant response ratings, summarized in Table C, are based on a scale of 0 to 100 where 0 is no effect and 100 is complete control. A dash (-) response means no test result.
# [2] = tested on: johnsongrass (Sorghum halepense); conditions: for Plant response rating, Johnsongrass: scale 0 to 100, 0 no effect, 100 complete control
# Text: as §1, §2
# [3] = tested on: velvetleaf (Abutilon theophrasti); conditions: for Plant response rating, Velvetleaf: scale 0 to 100, 0 no effect, 100 complete control
# Text: as §1, §2
# [4] = tested on: pigweed (Amaranthus retroflexus); conditions: for Plant response rating, Pigweed: scale 0 to 100, 0 no effect, 100 complete control
# Text: as §1, §2
# [5] = tested on: crabgrass, large (large crabgrass, Digitaria sanguinalis); conditions: for Plant response rating, Crabgrass, Large: scale 0 to 100, 0 no effect, 100 complete control
# Text: as §1, §2
# soybean (Glycine max) = conditions: for Plant response rating, Soybean: scale 0 to 100, 0 no effect, 100 complete control
# Text: as §1, §2
# [6] = tested on: ryegrass, Italian (Italian ryegrass, Lolium multiflorum); conditions: for Plant response rating, Ryegrass, Italian: scale 0 to 100, 0 no effect, 100 complete control
# Text: as §1, §2
# [7] = tested on: barnyardgrass (Echinochloa crus-galli); conditions: for Plant response rating, Barnyardgrass: scale 0 to 100, 0 no effect, 100 complete control
# Text: as §1, §2
# corn (Zea mays) = conditions: for Plant response rating, Corn: scale 0 to 100, 0 no effect, 100 complete control
# Text: as §1, §2
# [8] = tested on: waterhemp (common waterhemp, Amaranthus rudis); conditions: for Plant response rating, Waterhemp: scale 0 to 100, 0 no effect, 100 complete control
# Text: as §1, §2
# [9] = tested on: nutsedge, yellow (yellow nutsedge, Cyperus esculentus); conditions: for Plant response rating, Nutsedge, Yellow: scale 0 to 100, 0 no effect, 100 complete control
# Text: as §1, §2
# [10] = tested on: blackgrass (Alopecurus myosuroides); conditions: for Plant response rating, Blackgrass: scale 0 to 100, 0 no effect, 100 complete control
# Text: as §1, §2
# [11] = tested on: lambsquarters (Chenopodium album); conditions: for Plant response rating, Lambsquarters: scale 0 to 100, 0 no effect, 100 complete control
# Text: as §1, §2
# [12] = tested on: morningglory (Ipomoea coccinea); conditions: for Plant response rating, Morningglory: scale 0 to 100, 0 no effect, 100 complete control
# Text: as §1, §2
# [13] = tested on: wheat (winter wheat, Triticum aestivum); conditions: for Plant response rating, Wheat: scale 0 to 100, 0 no effect, 100 complete control
# Text: as §1, §2
# [14] = tested on: oilseed rape (Brassica napus); conditions: for Plant response rating, Oilseed Rape: scale 0 to 100, 0 no effect, 100 complete control
# Text: as §1, §2
# [15] = tested on: ragweed (common ragweed, Ambrosia elatior); conditions: for Plant response rating, Ragweed: scale 0 to 100, 0 no effect, 100 complete control
# Text: as §1, §2
# [16] = tested on: foxtail, giant (giant foxtail, Setaria faberii); conditions: for Plant response rating, Foxtail, Giant: scale 0 to 100, 0 no effect, 100 complete control
# Text: as §1, §2
# [17] = 31 g ai/ha, 0 is no effect, 100 is complete control
smiles,measurement,setting,value
CN1CC(c2ccc(F)c(F)c2)C(C(=O)Nc2ccccc2S(C)(=O)=O)C1=O (stereo not drawn) [Compound 640],"Plant response rating (scale of 0 to 100), Galium",[1]; [17],98
same,"Plant response rating, Galium",[1]; 62 g ai/ha,80
same,"Plant response rating, Galium",[1]; 125 g ai/ha,85
same,"Plant response rating, Galium",[1]; 250 g ai/ha,90
same,"Plant response rating (scale of 0 to 100), Johnsongrass",[2]; [17],0
same,"Plant response rating, Johnsongrass",[2]; 62 g ai/ha,0
same,"Plant response rating, Johnsongrass",[2]; 125 g ai/ha,0
same,"Plant response rating, Johnsongrass",[2]; 250 g ai/ha,40
same,"Plant response rating (scale of 0 to 100), Velvetleaf",[3]; [17],0
same,"Plant response rating, Velvetleaf",[3]; 62 g ai/ha,0
same,"Plant response rating, Velvetleaf",[3]; 125 g ai/ha,10
same,"Plant response rating, Velvetleaf",[3]; 250 g ai/ha,40
same,"Plant response rating (scale of 0 to 100), Pigweed",[4]; [17],40
same,"Plant response rating, Pigweed",[4]; 62 g ai/ha,50
same,"Plant response rating, Pigweed",[4]; 125 g ai/ha,70
same,"Plant response rating, Pigweed",[4]; 250 g ai/ha,80
same,"Plant response rating (scale of 0 to 100), Crabgrass, Large",[5]; [17],95
same,"Plant response rating, Crabgrass, Large",[5]; 62 g ai/ha,100
same,"Plant response rating, Crabgrass, Large",[5]; 125 g ai/ha,98
same,"Plant response rating, Crabgrass, Large",[5]; 250 g ai/ha,100
same,"Plant response rating (scale of 0 to 100), Soybean",soybean (Glycine max); [17],0
same,"Plant response rating, Soybean",soybean (Glycine max); 62 g ai/ha,0
same,"Plant response rating, Soybean",soybean (Glycine max); 125 g ai/ha,0
same,"Plant response rating, Soybean",soybean (Glycine max); 250 g ai/ha,0
same,"Plant response rating (scale of 0 to 100), Ryegrass, Italian",[6]; [17],0
same,"Plant response rating, Ryegrass, Italian",[6]; 62 g ai/ha,5
same,"Plant response rating, Ryegrass, Italian",[6]; 125 g ai/ha,5
same,"Plant response rating, Ryegrass, Italian",[6]; 250 g ai/ha,40
same,"Plant response rating (scale of 0 to 100), Barnyardgrass",[7]; [17],80
same,"Plant response rating, Barnyardgrass",[7]; 62 g ai/ha,90
same,"Plant response rating, Barnyardgrass",[7]; 125 g ai/ha,90
same,"Plant response rating, Barnyardgrass",[7]; 250 g ai/ha,95
same,"Plant response rating (scale of 0 to 100), Corn",corn (Zea mays); [17],0
same,"Plant response rating, Corn",corn (Zea mays); 62 g ai/ha,0
same,"Plant response rating, Corn",corn (Zea mays); 125 g ai/ha,0
same,"Plant response rating, Corn",corn (Zea mays); 250 g ai/ha,0
same,"Plant response rating (scale of 0 to 100), Waterhemp",[8]; [17],55
same,"Plant response rating, Waterhemp",[8]; 62 g ai/ha,75
same,"Plant response rating, Waterhemp",[8]; 125 g ai/ha,70
same,"Plant response rating, Waterhemp",[8]; 250 g ai/ha,85
same,"Plant response rating (scale of 0 to 100), Nutsedge, Yellow",[9]; [17],0
same,"Plant response rating, Nutsedge, Yellow",[9]; 62 g ai/ha,0
same,"Plant response rating, Nutsedge, Yellow",[9]; 125 g ai/ha,0
same,"Plant response rating, Nutsedge, Yellow",[9]; 250 g ai/ha,0
same,"Plant response rating (scale of 0 to 100), Blackgrass",[10]; [17],0
same,"Plant response rating, Blackgrass",[10]; 62 g ai/ha,0
same,"Plant response rating, Blackgrass",[10]; 125 g ai/ha,20
same,"Plant response rating, Blackgrass",[10]; 250 g ai/ha,50
same,"Plant response rating (scale of 0 to 100), Lambsquarters",[11]; [17],25
same,"Plant response rating, Lambsquarters",[11]; 62 g ai/ha,35
same,"Plant response rating, Lambsquarters",[11]; 125 g ai/ha,50
same,"Plant response rating, Lambsquarters",[11]; 250 g ai/ha,70
same,"Plant response rating (scale of 0 to 100), Morningglory",[12]; [17],0
same,"Plant response rating, Morningglory",[12]; 62 g ai/ha,0
same,"Plant response rating, Morningglory",[12]; 125 g ai/ha,0
same,"Plant response rating, Morningglory",[12]; 250 g ai/ha,0
same,"Plant response rating (scale of 0 to 100), Wheat",[13]; [17],0
same,"Plant response rating, Wheat",[13]; 62 g ai/ha,20
same,"Plant response rating, Wheat",[13]; 125 g ai/ha,45
same,"Plant response rating, Wheat",[13]; 250 g ai/ha,60
same,"Plant response rating (scale of 0 to 100), Oilseed Rape",[14]; [17],0
same,"Plant response rating, Oilseed Rape",[14]; 62 g ai/ha,0
same,"Plant response rating, Oilseed Rape",[14]; 125 g ai/ha,5
same,"Plant response rating, Oilseed Rape",[14]; 250 g ai/ha,80
same,"Plant response rating (scale of 0 to 100), Ragweed",[15]; [17],0
same,"Plant response rating, Ragweed",[15]; 62 g ai/ha,40
same,"Plant response rating, Ragweed",[15]; 125 g ai/ha,70
same,"Plant response rating, Ragweed",[15]; 250 g ai/ha,85
same,"Plant response rating (scale of 0 to 100), Foxtail, Giant",[16]; [17],85
same,"Plant response rating, Foxtail, Giant",[16]; 62 g ai/ha,95
same,"Plant response rating, Foxtail, Giant",[16]; 125 g ai/ha,95
same,"Plant response rating, Foxtail, Giant",[16]; 250 g ai/ha,95
